Values quoted from earlier work, collected in patent US10034825B2, “Luminate eye gel” (Jan Marini Skin Research, priority 2015, dated 2018).

Conditions: after penetration through the skin to the living cells

fraction converted to free tocopherol: about 5%
SMILES: CC(=O)Oc1c(C)c(C)c2c(c1C)CCC(C)(CCC[C@H](C)CCC[C@H](C)CCCC(C)C)O2 (stereo partly shown) [Tocopheryl acetate]
